Source: patent US20250163075A1, “HETEROBI[…] PROTEIN […]” (priority 2023, published 2025)

How the values were obtained:
KLHDC2 [1] = molecular target: T1, KLHDC2 (Homo sapiens (Human), UniProt Q9Y2U9); experiment: Sypro orange thermal stability (thermal shift) assay; type: binding
Method: To identify small molecules that bind to KLHDC2 the Sypro orange thermal stability assay was utilized. […] Assay solution containing 0.5 μM KLHDC2, 25 mM HEPES, 200 mM NaCl and 5% Sypro Orange pH 7.5 was added to a final volume of 20 ul and a final experimental ligand concentration of 50 uM. DMSO alone was included as a negative control and peptide sub2 was included as a positive control at 100 uM. The fluorescence of Sypro orange in each sample was measured on a Quantstudio 5 or a Quantstudio 6 at temperatures ranging from 23 to 75° C. at 0.05° C./second. Data reduction resulting in thermal stability (calculated using the Boltzmann and first derivative minima equations) was completed in the Thermo Scientific protein thermal shift software v1.4.

KLHDC2 [2] = molecular target: T1, KLHDC2; experiment: Time-resolved fluorescence energy transfer (TR-FRET) assay with Bodipy-labeled ligand probe; type: binding
From the text: The integration start was set to 100 μs, and the integration time was set to 200 μs. The number of flashes was fixed at 100.

T1 sequence (Q9Y2U9 whole entry): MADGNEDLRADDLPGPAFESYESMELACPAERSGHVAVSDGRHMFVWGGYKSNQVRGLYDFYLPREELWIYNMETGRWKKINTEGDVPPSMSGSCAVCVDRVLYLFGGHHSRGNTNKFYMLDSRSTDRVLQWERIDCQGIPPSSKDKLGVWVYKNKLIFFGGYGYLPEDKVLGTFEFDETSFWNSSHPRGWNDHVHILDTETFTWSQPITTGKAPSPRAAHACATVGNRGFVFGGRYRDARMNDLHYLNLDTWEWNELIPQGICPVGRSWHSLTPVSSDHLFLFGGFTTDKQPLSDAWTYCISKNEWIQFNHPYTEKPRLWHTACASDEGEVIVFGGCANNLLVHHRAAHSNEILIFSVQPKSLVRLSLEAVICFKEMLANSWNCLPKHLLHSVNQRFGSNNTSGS

| Compound | ΔTm (° C.) 50 μM ligand (KLHDC2 [1]; Table 1, 0.5 μM KLHDC2) [°C] | IC50 (KLHDC2 [2]; Table 1) [µM] | ΔTm (° C.) 50 μM ligand (KLHDC2 [1]; Table 2, 0.5 μM KLHDC2) [°C] | IC50 (KLHDC2 [2]; Table 2) [µM] |
| --- | --- | --- | --- | --- |
| COc1ccc2cc(-c3nc(CC(=O)NCC(=O)O)cs3)ccc2c1 [Compound 10, (2-(2-(6-Methoxynaphthalen-2-yl)Thiazol-4-yl)Acetyl)Glycine] | 3.9 ± 0.1 | 9.6 |  |  |
| O=C(O)CNC(=O)Cc1csc(-c2cccc3cccnc23)n1 [Compound 11, (2-(2-(Quinolin-8-yl)Thiazol-4-yl)Acetyl)Glycine] | 2.7 ± 0.4 | 7.1 |  |  |
| O=C(O)CNC(=O)Cc1csc(-c2ccc3ccccc3c2F)n1 [Compound 13, (2-(2-(1-Fluoronaphthalen-2-yl)Thiazol-4-yl)Acetyl)Glycine] | 6.0 ± 0.2 | 1.8 |  |  |
| O=C(O)CNC(=O)Cc1csc(-c2ccc3c(c2)NCCO3)n1 [Compound 27, (2-(2-(3,4-Dihydro-2H-Benzo[B][1,4]Oxazin-6-yl)Thiazol-4-yl)Acetyl)Glycine] |  | 3 |  |  |
| COCCOc1cccc2ccc(-c3nc(CC(=O)NCC(=O)O)cs3)cc12 [Compound 15A] |  |  | 4.3 ± 0.2 | 1.1 |
| O=C(O)CNC(=O)Cc1csc(-c2cccc3ccccc23)n1 [Compound 12, (2-(2-(Naphthalen-1-yl)Thiazol-4-yl)Acetyl)Glycine] | 3.7 ± 0.0 | 8.8 |  |  |
| O=C(O)CNC(=O)Cc1csc(-c2ccc3ccccc3c2)n1 [Compound 8, (2-(2-(Naphthalen-2-yl)Thiazol-4-yl)Acetyl)Glycine] | 6.0 ± 0.0 | 3.9 |  |  |
| COCOc1ccc(-c2nc(CC(=O)NCC(=O)O)cs2)c(Cl)c1 [i] | 3.52 ± 0.424 | 24.1 |  |  |
| O=C(O)CNC(=O)Cc1csc(-c2ccc3cc[nH]c3c2)n1 [Compound 23, (2-(2-(1H-Indol-6-yl)Thiazol-4-yl)Acetyl)Glycine] |  | 1.1 |  |  |
| O=C(O)CNC(=O)Cc1csc(-c2cccc3ccncc23)n1 [Compound 9, (2-(2-(Isoquinolin-8-yl)Thiazol-4-yl)Acetyl)Glycine] | 1.8 ± 0.0 | 20.3 |  |  |
| O=C(O)CNC(=O)Cc1csc(-c2ccc3cccc(OCCN4CCNCC4)c3c2)n1 [Compound 19, (2-(2-(8-(2-(Piperazin-1-yl)Ethoxy)Naphthalen-2-yl)Thiazol-4-yl)Acetyl)Glycine] |  |  | 4.8 ± 0.0 | 1.6 |
| O=C(O)CNC(=O)Cc1csc(-c2ccc3ccn(CCCN4CCNCC4)c3c2)n1 [Compound 24, (2-(2-(1-(3-(Piperazin-1-yl)Propyl)-1H-Indol-6-yl)Thiazol-4-yl)Acetyl)Glycine] |  |  |  | 1.2 |
| COc1ccc2ccc(-c3nc(CC(=O)NCC(=O)O)cs3)cc2c1 [Compound 14, (2-(2-(7-Methoxynaphthalen-2-yl)Thiazol-4-yl)Acetyl)Glycine] | 4.3 ± 0.2 | 1.7 |  |  |
